# The supplement of paper PMC10307832
# Tests used:
# Assay in all cases: relative viability (nuclei count vs DMSO), 5 days (fraction); higher = more cells survive
# [1] = compound: CCn1c(-c2nonc2N)nc2c(C#CC(C)(C)O)ncc(OC[C@H]3CCCNC3)c21 + C[C@]1(O)C[C@@H](c2nc(-c3ccc4ccc(-c5ccccc5)nc4c3)c3c(N)nccn32)C1 [Linsitinib] (partner 1 µM)
# Method in brief: (§1)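 One day after seeding in 1536-well plates, lung cancer cell lines were dosed by pin tool. Dosing was either single-drug or a fixed anchor-drug dose plus five library-drug doses (not always all listed) in √10 steps. After 5 days, nuclei were stained in one fix-and-stain step and counted on 4× images, and relative viability is the nuclei count of treated wells over that of vehicle wells, given as the median of duplicate plates.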
# [2] = compound: CCOC1=CC=CC=C1N=NC2=C(NN(C2=O)C3=NC(=CS3)C4=CC=CC=C4)C [BAM7] + CC1(C)CCC(c2ccc(Cl)cc2)=C(CN2CCN(c3ccc(C(=O)NS(=O)(=O)c4ccc(N[C@H](CCN5CCOCC5)CSc5ccccc5)c(S(=O)(=O)C(F)(F)F)c4)cc3)CC2)C1 [Navitoclax] (partner 0.5 µM)
# Method in brief: as §1
# [3] = compound: CCn1c(-c2nonc2N)nc2c(C#CC(C)(C)O)ncc(OC[C@H]3CCCNC3)c21 + C[C@@H](Oc1cc(-c2cnn(C3CCNCC3)c2)cnc1N)c1c(Cl)ccc(F)c1Cl [Crizotinib] (partner 1 µM)
# Method in brief: as §1
# [4] = compound: CCOC1=CC=CC=C1N=NC2=C(NN(C2=O)C3=NC(=CS3)C4=CC=CC=C4)C [BAM7] + CC(=O)c1c(C)c2cnc(Nc3ccc(N4CCNCC4)cn3)nc2n(C2CCCC2)c1=O [Palbociclib] (partner 0.5 µM)
# Method in brief: as §1
cell line,measurement,setting,value
SW 1573,relative viability,[1]; first compound 0.01 µM,0.827
same,relative viability,[1]; first compound 0.03162 µM,0.793
same,relative viability,[1]; first compound 0.1 µM,0.81
same,relative viability,[1]; first compound 0.3162 µM,0.7
same,relative viability,[1]; first compound 1 µM,0.772
same,relative viability,[2]; first compound 0.5 µM,0.89
same,relative viability,[2]; first compound 5 µM,1.02
same,relative viability,[2]; first compound 15.81 µM,1.24
same,relative viability,[2]; first compound 50 µM,1.06
same,relative viability,[3]; first compound 0.01 µM,0.699
same,relative viability,[3]; first compound 0.03162 µM,0.767
same,relative viability,[3]; first compound 0.1 µM,0.734
same,relative viability,[3]; first compound 0.3162 µM,0.762
same,relative viability,[3]; first compound 1 µM,0.704
same,relative viability,[4]; first compound 0.5 µM,0.433
same,relative viability,[4]; first compound 5 µM,0.396
same,relative viability,[4]; first compound 15.81 µM,0.356
same,relative viability,[4]; first compound 50 µM,0.391
